ChEMBL document CHEMBL1151037, “Synthesis of a chemiluminescent probe useful for the purification of steroid 5-reductase” (Bioorg Med Chem Lett, 1996)

Molecular target: T1, 3-oxo-5-alpha-steroid 4-dehydrogenase 1 (Rattus norvegicus, UniProt P24008)
T1 sequence (P24008 whole entry): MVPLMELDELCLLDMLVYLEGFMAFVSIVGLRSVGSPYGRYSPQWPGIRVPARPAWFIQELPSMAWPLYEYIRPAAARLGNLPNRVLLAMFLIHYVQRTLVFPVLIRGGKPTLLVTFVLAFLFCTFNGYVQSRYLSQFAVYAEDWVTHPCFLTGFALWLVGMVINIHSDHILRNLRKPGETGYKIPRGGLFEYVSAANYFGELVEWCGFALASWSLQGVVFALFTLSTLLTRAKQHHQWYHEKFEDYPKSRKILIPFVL
Test: Compound was tested for its inhibitory potency against rat Steroid 5-alpha-reductase type 1 expressed in transformed yeast Saccharomyces cerevisiae

IC50 [µM] | Structure (SMILES)
0.5 | CCN(CCCCNC(=O)[C@H]1CCC2C3CCC4NC(=O)C=C[C@]4(C)C3CC[C@@]21C)c1ccc2c(=O)[nH][nH]c(=O)c2c1 (some centres not stated)
40 | CC(C)(C)NC(=O)[C@H]1CC[C@H]2[C@@H]3CC[C@H]4NC(=O)C=C[C@]4(C)[C@H]3CC[C@]12C [FINASTERIDE]
